Reference: the supplement of paper PMC7661543
± gives the standard deviation of the averaged measurements.

tested on: MDA-MB-231; test: relative cell number vs DMSO control (72 h) (% of DMSO); higher = less growth inhibition (more cells); conditions: sgRNA knockout: sgNT, 100 nM
Procedure: (§1)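 QMAP-Seq: a pool of 5 breast cancer cell lines (ZR-75-1, SKBR3, HCC-38, MDA-MB-231, BT-20), each carrying 12 doxycycline-inducible Cas9 sgRNA perturbations (11 knockouts plus non-targeting sgNT), was treated with compounds for 72 h at four 10-fold doses (10 nM-10 uM or 1 nM-1 uM range). Barcodes were amplified and sequenced, and cell number was interpolated from 293T spike-in standard curves. The result is expressed as % of the median of DMSO wells. Two biological replicates.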

Compound	relative cell number
C=CC(=O)Nc1cc2c(Nc3ccc(F)c(Cl)c3)ncnc2cc1OCCCN1CCOCC1 [Canertinib]	60.8 ± 6.4

same assay, conditions: sgRNA knockout: sgNT, 1000 nM

Compound	relative cell number
FC(F)c1nc2ccccc2n1-c1nc(N2CCOCC2)nc(N2CCOCC2)n1 [ZSTK474]	81.7 ± 4.7
Cc1nc(Nc2ncc(C(=O)Nc3c(C)cccc3Cl)s2)cc(N2CCN(CCO)CC2)n1 [Dasatinib]	56 ± 14
CN/C(=N\CCSCc1nc[nH]c1C)NC#N [Cimetidine]	95.5 ± 9.1
CC(C)C[C@H](NC(=O)[C@H](Cc1ccccc1)NC(=O)c1cnccn1)B(O)O [Bortezomib]	13.2 ± 6.6
COc1cc(CCc2cc(NC(=O)c3ccc(N4CC(C)NC(C)C4)cc3)n[nH]2)cc(OC)c1 (configuration not stated) [AZD4547]	99.5 ± 11
CC(C)(C)c1ccc(S(=O)(=O)NCc2ccc(C(=O)Nc3cccnc3)cc2)cc1 [STF31]	61.7 ± 12
CCC[C@H](NC(=O)/C(C#N)=C/c1cccc(Br)n1)c1ccccc1 [WP1130]	116 ± 47
O=[N+]([O-])c1ccc(O)c2ncccc12 [Nitroxoline]	88.3 ± 10
O=C1c2c(O)ccc(O)c2C(=O)c2c(NCCNCCO)ccc(NCCNCCO)c21 [Mitoxantrone]	4.896 ± 0.008
N[C@@H](CC(=O)N1CCn2c(nnc2C(F)(F)F)C1)Cc1cc(F)c(F)cc1F [Sitagliptin]	113 ± 32
CC(C)[C@H](O)C(=O)N[C@@H](C)C(=O)N[C@@H]1C(=O)N(C)CCc2ccccc21 [Semagacestat]	91.7 ± 11
C=C1C(=O)O[C@H]2[C@H]1CC/C(C)=C/CC[C@@]1(C)O[C@@H]21 [Parthenolide]	126 ± 11
COc1cc(/C=C/C(=O)CC(=O)/C=C/c2ccc(O)c(OC)c2)ccc1O [Curcumin]	88.6 ± 8.1
Nc1nc(OCc2cc(Br)cs2)c2[nH]cnc2n1 [Lomeguatrib]	127.8 ± 0.46
C=C(c1ccc(C(=O)O)cc1)c1cc2c(cc1C)C(C)(C)CCC2(C)C [Bexarotene]	95.3 ± 16
Clc1ccc(C2(c3ccc(-c4cn[nH]c4)cc3)CCNCC2)cc1 [AT7867]	35.9 ± 6
CS(=O)(=O)c1cccc(CNc2nc(Nc3ccc4c(c3)CCC(=O)N4)ncc2C(F)(F)F)c1	103 ± 6.8
N#Cc1ccc(COC[C@H]2O[C@@H](n3c(NCc4ccc(Cl)c(Cl)c4)nc4c(N)ncnc43)[C@H](O)[C@@H]2O)cc1	115 ± 28
CN(Cc1cnc2nc(N)nc(N)c2n1)c1ccc(C(=O)N[C@@H](CCC(=O)O)C(=O)O)cc1 [Methotrexate]	91.2 ± 9.4
CC(C)CC(=O)Nc1n[nH]c2c1CN(C(=O)C1CCN(C)CC1)C2(C)C	18.8 ± 1.3
CCCc1nn(C)c2c(=O)[nH]c(-c3cc(S(=O)(=O)N4CCN(C)CC4)ccc3OCC)nc12 [Sildenafil]	97.7 ± 22
O=C1CCC(N2C(=O)c3ccccc3C2=O)C(=O)N1 (configuration not stated) [Thalidomide]	102 ± 29
CC(C)(C(=O)NCC(F)(F)C(F)(F)F)C(=O)N[C@@H]1C(=O)Nc2ccccc2-c2ccccc21	104 ± 16
CC[C@@]1(O)C(=O)OCc2c1cc1n(c2=O)Cc2cc3c(CN(C)C)c(O)ccc3nc2-1 [Topotecan]	16.9 ± 1.2
C=CC(=O)Nc1cc2c(Nc3ccc(F)c(Cl)c3)ncnc2cc1OCCCN1CCOCC1 [Canertinib]	78.7 ± 21

same assay, conditions: sgRNA knockout: sgNT, 10000 nM

Compound	relative cell number
FC(F)c1nc2ccccc2n1-c1nc(N2CCOCC2)nc(N2CCOCC2)n1 [ZSTK474]	76.3 ± 15
Cc1nc(Nc2ncc(C(=O)Nc3c(C)cccc3Cl)s2)cc(N2CCN(CCO)CC2)n1 [Dasatinib]	13.8 ± 4.3
CN/C(=N\CCSCc1nc[nH]c1C)NC#N [Cimetidine]	92.2 ± 9.2
COc1cc(CCc2cc(NC(=O)c3ccc(N4CC(C)NC(C)C4)cc3)n[nH]2)cc(OC)c1 (configuration not stated) [AZD4547]	40.1 ± 3
CC(C)(C)c1ccc(S(=O)(=O)NCc2ccc(C(=O)Nc3cccnc3)cc2)cc1 [STF31]	27.3 ± 3.5
CCC[C@H](NC(=O)/C(C#N)=C/c1cccc(Br)n1)c1ccccc1 [WP1130]	11.7 ± 3.7
O=[N+]([O-])c1ccc(O)c2ncccc12 [Nitroxoline]	37.7 ± 9.7
O=C1c2c(O)ccc(O)c2C(=O)c2c(NCCNCCO)ccc(NCCNCCO)c21 [Mitoxantrone]	6.65 ± 4.1
N[C@@H](CC(=O)N1CCn2c(nnc2C(F)(F)F)C1)Cc1cc(F)c(F)cc1F [Sitagliptin]	120 ± 77
CC(C)[C@H](O)C(=O)N[C@@H](C)C(=O)N[C@@H]1C(=O)N(C)CCc2ccccc21 [Semagacestat]	96.9 ± 12
C=C1C(=O)O[C@H]2[C@H]1CC/C(C)=C/CC[C@@]1(C)O[C@@H]21 [Parthenolide]	124.5 ± 0.77
COc1cc(/C=C/C(=O)CC(=O)/C=C/c2ccc(O)c(OC)c2)ccc1O [Curcumin]	61.55 ± 0.48
Nc1nc(OCc2cc(Br)cs2)c2[nH]cnc2n1 [Lomeguatrib]	86.4 ± 4.3
C=C(c1ccc(C(=O)O)cc1)c1cc2c(cc1C)C(C)(C)CCC2(C)C [Bexarotene]	80.2 ± 31
Clc1ccc(C2(c3ccc(-c4cn[nH]c4)cc3)CCNCC2)cc1 [AT7867]	14.5 ± 2.1
CS(=O)(=O)c1cccc(CNc2nc(Nc3ccc4c(c3)CCC(=O)N4)ncc2C(F)(F)F)c1	32.1 ± 9.6
N#Cc1ccc(COC[C@H]2O[C@@H](n3c(NCc4ccc(Cl)c(Cl)c4)nc4c(N)ncnc43)[C@H](O)[C@@H]2O)cc1	28.9 ± 0.7
CN(Cc1cnc2nc(N)nc(N)c2n1)c1ccc(C(=O)N[C@@H](CCC(=O)O)C(=O)O)cc1 [Methotrexate]	33.9 ± 8.7
CC(C)CC(=O)Nc1n[nH]c2c1CN(C(=O)C1CCN(C)CC1)C2(C)C	11 ± 4.8
CCCc1nn(C)c2c(=O)[nH]c(-c3cc(S(=O)(=O)N4CCN(C)CC4)ccc3OCC)nc12 [Sildenafil]	57.1 ± 8.9
O=C1CCC(N2C(=O)c3ccccc3C2=O)C(=O)N1 (configuration not stated) [Thalidomide]	124 ± 19
CC(C)(C(=O)NCC(F)(F)C(F)(F)F)C(=O)N[C@@H]1C(=O)Nc2ccccc2-c2ccccc21	97.7 ± 28
CC[C@@]1(O)C(=O)OCc2c1cc1n(c2=O)Cc2cc3c(CN(C)C)c(O)ccc3nc2-1 [Topotecan]	8.21 ± 3.3
C=CC(=O)Nc1cc2c(Nc3ccc(F)c(Cl)c3)ncnc2cc1OCCCN1CCOCC1 [Canertinib]	9.74 ± 5.8

tested on: SKBR3; test: as above; conditions: sgRNA knockout: sgNT, 1 nM
Procedure: as §1

Compound	relative cell number
CC(C)C[C@H](NC(=O)[C@H](Cc1ccccc1)NC(=O)c1cnccn1)B(O)O [Bortezomib]	94.4 ± 13

same assay, conditions: sgRNA knockout: sgNT, 10 nM

Compound	relative cell number
FC(F)c1nc2ccccc2n1-c1nc(N2CCOCC2)nc(N2CCOCC2)n1 [ZSTK474]	93.1 ± 1.6
Cc1nc(Nc2ncc(C(=O)Nc3c(C)cccc3Cl)s2)cc(N2CCN(CCO)CC2)n1 [Dasatinib]	53.8 ± 31
CN/C(=N\CCSCc1nc[nH]c1C)NC#N [Cimetidine]	78.8 ± 35
CC(C)C[C@H](NC(=O)[C@H](Cc1ccccc1)NC(=O)c1cnccn1)B(O)O [Bortezomib]	34.3 ± 8
COc1cc(CCc2cc(NC(=O)c3ccc(N4CC(C)NC(C)C4)cc3)n[nH]2)cc(OC)c1 (configuration not stated) [AZD4547]	62.3 ± 26
CC(C)(C)c1ccc(S(=O)(=O)NCc2ccc(C(=O)Nc3cccnc3)cc2)cc1 [STF31]	97.4 ± 8.6
CCC[C@H](NC(=O)/C(C#N)=C/c1cccc(Br)n1)c1ccccc1 [WP1130]	84 ± 36
O=[N+]([O-])c1ccc(O)c2ncccc12 [Nitroxoline]	82.9 ± 23
O=C1c2c(O)ccc(O)c2C(=O)c2c(NCCNCCO)ccc(NCCNCCO)c21 [Mitoxantrone]	37.3 ± 21
N[C@@H](CC(=O)N1CCn2c(nnc2C(F)(F)F)C1)Cc1cc(F)c(F)cc1F [Sitagliptin]	87.3 ± 2.4
CC(C)[C@H](O)C(=O)N[C@@H](C)C(=O)N[C@@H]1C(=O)N(C)CCc2ccccc21 [Semagacestat]	112 ± 42
